Source: US4956381A, “Treating tissue calcium depletion or degenerative processes in bone or cartilage” (Sandoz Ltd., priority 1987, dated 1990)
Read-outs that look alike come from different tables or passages of the source.

How the values were obtained:
human monocytes = experiment: LAF-test (thymocyte proliferation), monokine production by human monocytes; assay type: cell-based; conditions: Monocyte, substantially pure Z-isomeric form, 2 separate experiments, 3 parallel determinations, read-out: ED50 (inhibition of monokine production)
Experimental: Mononuclear cells are obtained from the blood of healthy volunteers via centrifugation and cultivated on tissue culture dishes with test compound at varying concentrations [Schnyder et al., J. Immunol., 138, 496-503 (1987)]. The non-adherent lymphocytes are removed after 4 hours by washing several times. Fresh medium, test compound and lipopolysaccharide (LPS) as stimulant are added and the monocytes incubated for further 19 hours. The pooled culture media are diluted 1:10 (v:v) with fresh medium and added to confluent rabbit chondrocytes. MP activity in the chondrocyte culture medium is assayed after a further 2 days. COMPOUNDS OF THE INVENTION, in particular compounds D2 and K1, are active in suppressing monokine release in the above test method at concentrations of the order of from about 30 to about 100 μM. Thus determined ED50 S for the compounds D2 and K1 each in substantially pure Z-isomeric form in a series of 3 or 7 separate experiments each with 3 parallel determinations are, for both compounds, of the order of 60 to 100 μM.
Lymphocyte proliferation is the standard test for monokine activity. […] The cells are incubated for 2 days in 96-well culture plates and the proliferation rate determined using a ^3 H-thymidine pulse (1 μC/well) during the final 6 hours. The incorporated radioactivity is collected on filter paper and counted. […]

IL-1 = IL-1 induced secretion of metalloproteinase (MP) in chondrocytes; assay type: cell-based; conditions: 2 days incubation
Experimental: Furthermore the influence on IL-1 induced secretion of MP is determined using chondrocytes as a target system for IL-1. IL-1 (Genzyme Corporation,USA) is added with or without a COMPOUND OF THE INVENTION or Dexamethasone (control) to chondrocytes and the activity or metalloproteinase is determined in the supernatant media of 2 days incubation period.

Calvaria halves = experiment: Prevention of bone resorption: calcium release from calvaria; assay type: cell-based, Swiss albino mice; conditions: Mus musculus
Experimental: (§1) Calvaria halves (frontal and parietal parts) from 4-5 day Swiss albino mice are cultured on stainless steel grids in BGJ bone tissue culture medium, supplemented with 1 mg/ml BSA at the interphase of medium and gas in a humidified atmosphere (95% air/5% CO2 ) at 37° C. - c.f. Reynolds et al. in "Organ Culture in Biomed. Res." eds. Balls and Mamichendam, Cambridge University Press, p.p. 355-366 (1976).
(§2) Influence of test substance at varying concentrations on calcium release into :he test medium in the presence of calcium release stimulators [PGE2, LPS or […] (1,25D3)]is determined. For this purpose calcium concentrations are measured in bone culture supernatants obtained from 72 and 144 hour cultures and in TCA extracts of the calvaria at the end of culture by spectrometric methods [Gindler et al., Am. J. Clin. Pathol. 58, 376-382 (1972)]. Activity of lysosomal enzyme N-acetyl-glucose-aminidase in bone culture supernatants and in Triton 100 extracts of calvaria after culture is also determined employing the method of Banerjee and Basu, Biochem. J., 45, 113-118 (1975). Changes in enzyme activity are expressed as μ units/calvarium half and as % release.
(§3) (For the calculation of IC50 values the difference between resorption rate in control cultures and resorption in maximally stimulated cultures is taken as 100 %. The IC50 is taken as the concentration of test substance which inhibits maximum resorption by 50 %)

[1] = tested on: lysosomal enzyme N-acetyl-glucose-aminidase; experiment: Prevention of bone resorption: N-acetyl-glucose-aminidase release from calvaria; assay type: cell-based, Swiss albino mice; conditions: Mus musculus, read-out: IC50 N-acetylglucose-aminidase
Experimental: as §1, §2, §3

pulmonary fibrosis = experiment: Pulmonary fibrosis (bleomycin induced); assay type: in vivo, New Zealand white rabbits; conditions: ca. 2.5 to 60 mg/kg/day p.o.; substantially pure Z-isomeric form; vs placebo
Experimental: Testing is carried out in accordance with the general methodology described by G. J. Laurent et al. in Eur. J. Clin. Invest. (1981) 11, 441-448. Pulmonary fibrosis is induced in groups of 4 New Zealand white rabbits (aged 127 days at commencement of the experiment), each weighing 2.0-2.5 kg, by intratracheal instillation of 10 mg/kg bleomycin. The lungs of test animals are examined 2, 4 and 8 weeks later.

periodontal disease = experiment: Clinical trial III: calcium resorption - periodontal disease; assay type: in vivo, human; conditions: ca. 400 to 1200 mg p.o./day or injection ca. 0.5 or 1.0 to 5.0 mg per gum pouch; after ca. 2 to 3 weeks
Experimental: COMPOUND OF THE INVENTION, e.g. compound D2 or K1 in substantially pure Z-isomeric form, is administered at dosages of from ca. 400 to 1200 mg/p.o./day administered once or in divided dosages up to 4x daily, or by injection into the gum at the site of disease at dosages of the order of about 0.5 or 1.0 to about 5.0 mg into each gum pouch. The subjects are examined at regular weekly or 2x weekly intervals for disease progression.

[2] = tested on: psoriatic arthritis or seronegative spondylarthrosis or osteoarthrosis; experiment: Clinical trial IV: degenerative joint disease; assay type: in vivo, human; conditions: ca. 200 to 1200 mg p.o./day, 8 weeks
Experimental: COMPOUND OF THE INVENTION, e.g. compound D2 or K1 in substantially pure Z-isomeric form, is administered at dosages of from ca. 200 to 1200 mg/p.o./day, once or in divided dosages up to 4×daily for 8 weeks. The subjects are examined at a regular interval of 2 weeks for disease progression on parameters such as pain sensation at the joints, evaluation of the functional capacity according to Steinbrocker, hand grip strength or Richtie Index.

beagle dogs = experiment: Tolerability / pilot toxicology in beagle dogs; assay type: in vivo; conditions: up to 200 mg/kg/day for 26 weeks

## COC1=Cc2ccccc2/C(=C/C(=O)O)c2ccsc21 [Compound D2, [10-Methoxy-4H-benzo[4,5]cyclohepta[1,2-b]thiophen-4-ylidene]-acetic acid]
Human monocytes
  IC50: ~30 µM
IL-1
  influence on IL-1 induced secretion of MP: do not influence the IL-1 induced secretion of MP
Calvaria halves; in the presence of 1,25D3
  IC50: 38 µM
Calvaria halves; in the presence of LPS
  IC50: 28 µM
Calvaria halves; in the presence of PGE2
  IC50: 22 µM
[1]; in the presence of 1,25D3
  IC50: 37 µM
[1]; in the presence of LPS
  IC50: 8.3 µM
[1]; in the presence of PGE2
  IC50: 7.9 µM
Pulmonary fibrosis
  pulmonary fibrosis: substantial reduction of pulmonary fibrosis
Periodontal disease
  condition (periodontal disease): marked improvement in condition after ca. 2 to 3 weeks continuous therapy
[2]
  condition (degenerative joint disease): improvement in condition after the 8 week treatment period
Beagle dogs
  tolerability: generally well tolerated
